One compound from publication PMC3335078, “Length and Amino Acid Sequence of Peptides Substituted for the 5-HT3A Receptor M3M4 Loop May Affect Channel Expression and Desensitization” (PLoS ONE, 2012) can be followed below.

SMILES strings stand for the structures.

This assay has as its system 5-HT3A-QDA receptor. As to the kind of experiment: Outside-out patch clamp of transfected HEK293 cells, effect of ondansetron on 5-HT activated channels. Conditions: 1 µM ondansetron with 5-HT, -60 mV, data not shown. The class given is cell-based. Here is the method: HEK293 cells (CRL-1573, ATCC, Manassas, VA) seeded at low density on poly-lysine-coated, 12 mm, thin glass coverslips were transfected 24 h later using a modified calcium-phosphate precipitation technique with 500 ng DNA per well. After 12 h, cells were rinsed with fresh medium (DMEM supplemented with 10% FBS+100 Units ml^-1 penicillin+100 μg ml^-1 streptomycin+4 mM L-glutamine) and incubated at 28°C [34]. Recordings were performed 24-48 h later. For patch clamp experiments the coverslips were mounted on an inverted Zeiss IM microscope equipped with epifluorescent illumination. Cells expressing the GFP reporter were selected for patch clamp recording. Pipettes pulled from borosilicate glass capillaries ([…]-10, Harvard Apparatus Inc., Holliston, MA) with a tip resistance of 8-13 MΩ when filled with intracellular solution. The recordings were done using outside-out and cell-attached patch configurations. Data was acquired with an EPC9 amplifier using Pulse software, v8.65 (HEKA Instruments Inc., Bellmore, NY). Data were sampled at 20 kHz and filtered at 10 kHz. All point histograms and fits with a sum of two or three Gaussian functions were performed using the Levenberg-Marquardt algorithm implemented in Qub software. […] Effects of ondansetron were determined in the outside-out recording configuration at a holding potential of -60 mV.

With `Cc1nccn1CC1CCc2c(c3ccccc3n2C)C1=O` (stereo not shown) [ondansetron, Ondansetron], the “Block of 5-HT activated single channels” value is recorded as “no similar channels were observed”.
